What was measured:
Type in all cases: in vivo, Sprague-Dawley rats
ovariectomized rats [1] = assay: Relative uterine weight, 2S(−) 8-PN in ovariectomized rats (Example 3); settings: OVX rats; for Relative uterus weight, Mean: s.c. 7 times a week
Experimental: The aim of the study was to examine bone and uterine effects of a 4-week treatment with 2S(−) 8-Prenylnaringenin (8-PN) in 3-month-old ovariectomized rats. […] At the end of the study, uterine weight and ex vivo bone mineral density (BMD) of tibia were measured.
A total of 30 female 13-14-week-old Sprague-Dawley rats were used in the study. The animals were randomized into 5 groups, with 6 rats/group. Group 1 was sham-operated (SHAM) and groups 2-5 were ovariectomized (OVX).
Treatments with the vehicle or test substance started on the day following operation. […] The animals were sacrificed one day after the last dosing. At the end of the study, left tibiae were excised for ex vivo BMD measurement (pQCT) at proximal tibia and uteri were excised for the determination of absolute and relative weights. In addition, samples for the determination of 2S(−)8-Prenylnaringenin concentration were taken from all dosing solutions on the day when they were prepared and on the last day of use. The data of body weights, relative uterine weights and BMD were analyzed with one-way analysis of variance.
Relative uterine weight was calculated as percentage of body weight

[2] = Body weight, 8-PN racemic, 2S(−) 8-PN and estradiol hemihydrate in ovariectomized rats (Example 4); settings: OVX rats; s.c. once a day, 28 days; 20 mg/kg/d in HP-β-CD
Experimental: The aim of the study was to directly compare the effects of Prenylnaringenin (racemate) and 2S(−) 8-Prenylnaringenin to the effects of estradiol hemihydrate on bone mineral density and uterine weight on 3-month-old ovariectomized rats using identical formulations. In addition, the effects of estradiolhemihydrate in two vehicles (oily, aqueous) were examined for influence of formulations. The substances were administered subcutaneously(s.c.) seven days a week beginning the day after ovariectomy. At the end of the study, uterine weight and bone mineral density (BMD) of tibia were measured.
Forty-one female Sprague-Dawley rats, 12-14 weeks of age were randomized into six groups, 6-8 animals in each. Five groups were ovariectomized (OVX) and one group was sham-operated (SHAM). Treatments started on the day following operation and continued for 28 days. The animals were treated s.c. once a day seven times a week as follows. Group 1 (SHAM vehicle group) and group 2 (OVX vehicle group) were given the vehicle 30% hydroxypropyl-β-cyclodextrin (HP-β-CD). Groups 3 and 4 were administered 4 μg/kg/d of estradiol hemihydrate in vehicle benzyl benzoate/ricinus oil (B/R) and in vehicle HP-β-CD, respectively. Groups 5 and 6 were given 20 mg/kg/d of 2S(−)8-Prenylnaringenin and racemic 8-Prenylnaringenin, respectively, both in vehicle HP-β-CD. At the end of the study, left tibiae were excised for the ex vivo BMD […] were taken from all dosing solutions on the first and last day of use.
Vehicle 1 (used in the groups 1 and 2): 30% hydroxypropyl-β-cyclodextrin and 0.3% NaCl (w/v), 5% ethanol (v/v) in Aqua sterilisata, pH 7.4.
Vehicle 2 (used when preparing dosing solutions of the groups 4, 5 and 6): 30% hydroxypropyl-β-cyclodextrin and 0.3% NaCl (w/v) in Aqua sterilisata, pH 7.4.
Vehicle 3 (used when preparing a dosing solution of the group 3): benzyl benzoate/ricinus oil (B/R) 1+4, v/v.

ovariectomized rats [3] = assay: Uterus histology, luminal epithelium cell height in ovariectomized rats (Example 3); settings: ovariectomized rat; at 1.77 mg/kg and 18 mg/kg
Experimental: A post-study histological examination was performed. The formalin fixed uteri were embedded in paraffin, cut into 5 μm transverse sections and were stained with haematoxylin eosin. The sections were then evaluated quantitatively for luminal epithelium cell height.

## CC(C)=CCc1c(O)cc(O)c2c1O[C@H](c1ccc(O)cc1)CC2=O [2S(−)8-PN, 2S(−) 8-Prenylnaringenin]
Ovariectomized rats [1]; at the same bone effective dose
  effect on the uterus compared with 17β-estradiol: much lower effect on the uterus than 17β-estradiol at the same bone effective dose
Ovariectomized rats [1]; dose range 0.67-18 mg/kg/d s.c., 4 weeks
  increase of relative uterine weight compared to ovariectomy: less than twofold
Ovariectomized rats [1]; dose range 0.67-18 mg/kg/d, SHAM group 0.194%
  relative uterine weights: 0.054-0.065%
Ovariectomized rats [1]; 4 weeks, 0.67 mg/kg/d
  Relative uterus weight, Mean: 0.054%
Ovariectomized rats [1]; 4 weeks, 1.77 mg/kg/d
  Relative uterus weight, Mean: 0.063%
Ovariectomized rats [1]; 4 weeks, 18 mg/kg/d
  Relative uterus weight, Mean: 0.065%
[2]
  Body weight at The end (bw4b): 289(6) g
  The change in Body weight (bw4b-bw0): 24(2) g
Ovariectomized rats [3]
  luminal epithelial cell height: weak stimulation of luminal epithelial cell height

From US20070276032A1, “Use of 8-Prenylnaringenin for Hormone Replacement Therapy” (priority 2003, published 2007)
